Experimental data taken from patent publication US20100173914A1, “PHARMACEUTICALS, COMPOSITIONS AND METHODS OF MAKING AND USING THE SAME” (priority 2007, published 2010).

Tests used:
[1] = target: T1, human adenosine A2A receptors (Homo sapiens, UniProt P29274); experiment: Adenosine receptor binding: binding affinities at hA2A receptors ([3H]CGS-21680 displacement); settings: for Ki: displacement of [3H]CGS-21680, HEK-293 cell membranes; for A2A/A1 selectivity ratio (Ki A2A/Ki A1): ratio of measured Ki values at hA2A and hA1
T1 construct: host or cells: HEK-293
T1 sequence (P29274 whole entry): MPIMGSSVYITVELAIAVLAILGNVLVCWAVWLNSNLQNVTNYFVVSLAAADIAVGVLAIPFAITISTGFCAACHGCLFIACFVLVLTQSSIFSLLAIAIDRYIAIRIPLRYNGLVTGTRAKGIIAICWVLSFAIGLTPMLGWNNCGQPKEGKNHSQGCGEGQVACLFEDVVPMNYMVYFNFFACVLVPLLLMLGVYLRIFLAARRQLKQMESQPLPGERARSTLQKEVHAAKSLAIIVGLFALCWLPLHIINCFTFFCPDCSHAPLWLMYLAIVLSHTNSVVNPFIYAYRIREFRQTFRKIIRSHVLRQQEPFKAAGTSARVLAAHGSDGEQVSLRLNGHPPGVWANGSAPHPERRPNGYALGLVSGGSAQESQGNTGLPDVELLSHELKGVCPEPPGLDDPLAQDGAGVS
Text: Adenosine Receptor Binding: Binding Affinities at hA2A Receptors
The compounds were examined in an assay measuring in vitro binding to human adenosine A2A receptors by determining the displacement of the adenosine A2A receptor selective radioligand 4-[2-[[6-Amino-9-(N-ethyl-β-D-ribofuranuronamidosyl)-9H-purin-2-yl]amino]ethyl]benzenepropanoic acid hydrochloride ([^3H]CGS-21680) using standard techniques. See, for example, Jarvis et al., J Pharmacol Exp Ther., 251(3):888-93, which is incorporated by reference in its entirety.
Frozen HEK-293 cells were homogenized in 65 mL of 50 mM Tris HCl buffer (pH 7.5) containing 10 mM MgCl2, and 0.1 IU/mL adenosine deaminase per pellet using a Ultra-Turrax homogenizer. The resultant homogenate was kept for immediate use in the binding assay.
(§1) Binding assays were performed in a total volume of 250 μL, containing [^3H]-CGS21680 (20.0 nM), membranes and additional drugs. Total binding was determined using drug dilution buffer (50 mM Tris-HCl pH 7.5, 10 mM MgCl2, 5% DMSO). Non-specific binding was determined using 300 μM CHA. Following incubation for 90 minutes at 21° C., assays were terminated by rapid filtration with GF/B filters (presoaked in 0.1% (w/v) polyethylenimine) using a Canberra Packard filtermate 196, washed 3 times with ice-cold Tris-HCl (pH 7.4). Filters were left to dry overnight, and Microscint-0 scintillation fluid was then added to the filters. The filters were then left for at least 2 hours before the radioactivity was assessed using a Canberra Packard TopCount microplate scintillation counter.
To determine the free ligand concentration, three vials were counted with 25 μL of [^3H]CGS21680 containing 4 mL of Ultima-Gold MV scintillant on a Beckman LS6500 multi-purpose scintillation counter.
(§2) Data was analysed using a 4 parameter logistical equation and non-linear regression which yields affinity constants (pIC50), and slope parameters:
where E is the quantity of binding and [A] is the competitor concentration. The Ki is then determined using the Cheng-Prusoff equation: […]

[2] = target: T2, human adenosine A1 receptors (Homo sapiens, UniProt P30542); experiment: Adenosine receptor binding: binding affinities at hA1 receptors ([3H]DPCPX displacement); settings: displacement of [3H]DPCPX, membranes of CHO-K1 cells transfected with human A1
T2 construct: expressed in transfected cells; host or cells: CHO-K1
T2 sequence (P30542 1-326): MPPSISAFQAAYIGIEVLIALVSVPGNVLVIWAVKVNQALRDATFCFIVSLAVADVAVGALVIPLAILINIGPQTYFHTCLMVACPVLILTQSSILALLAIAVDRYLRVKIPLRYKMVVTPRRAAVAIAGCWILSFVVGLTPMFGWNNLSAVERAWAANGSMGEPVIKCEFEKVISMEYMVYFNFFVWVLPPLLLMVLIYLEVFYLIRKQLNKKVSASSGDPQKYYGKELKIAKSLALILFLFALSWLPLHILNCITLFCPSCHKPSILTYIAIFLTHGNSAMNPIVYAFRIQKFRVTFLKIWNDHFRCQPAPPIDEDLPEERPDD
Text: Adenosine Receptor Binding: Binding Affinities at hA1 Receptors
The compounds were examined in an assay measuring in vitro binding to human adenosine A1 receptors by determining the displacement of the adenosine A1 receptor selective radioligand 8-Cyclopentyl-1,3-dipropylxanthine ([^3H]DPCPX) using standard techniques. See, for example, Lohse M J, et al., (1987), 8-Cyclopentyl-1,3-dipropylxanthine (DPCPX)—a selective high affinity antagonist radioligand for A1 adenosine receptors. Naunyn Schmiedebergs Arch Pharmacol., 336(2):204-10, which is incorporated by reference in its entirety.
as §1, with “Frozen CHO-K1 cells (transfected with a human adenosine A1 recepter expression vector) were homogenized in 130 mL of 50 mM Tris HCl buffer (pH 7.5) containing 10 mM MgCl2, and 0.1 IU/mL adenosine deaminase per pellet using a Ultra-Turrax homogeniser. The resultant homogenate was kept for immediate use in the binding. Binding” for “Binding”, “[^3H]-DPCPX (3.0” for “[^3H]-CGS21680 (20.0”, “pH:7.5,” for “pH 7.5,”, “N6-cyclohexyladenosine (CHA).” for “CHA.”
To determine the free ligand concentration, three vials were counted with 25 μL of [^3H]DPCPX containing 4 mL of Ultima-Gold MV scintillant on a Beckman LS6500 multi-purpose scintillation counter.
as §2
where E is the quantity of binding and [A] is the competitor concentration. The K, is then determined using the Cheng-Prusoff equation: […]

[3] = cited from earlier work
[4] = cited from earlier work; remark: listed apart in the source

Row | SMILES | Ki [1] [nM] | A2A/A1 selectivity ratio (Ki A2A/Ki A1) [1] | Ki [2] [nM] | also measured
1 | Nc1nc(-c2cccs2)c2nnn(Cc3ccc(NS(=O)(=O)O)cc3)c2n1 [4-[(5-amino-7-(thiophen-2-yl)-3H-[1,2,3]triazolo[4,5-d]pyrimidin-3-yl)methyl]phenylsulfamic acid] | 100 to 1000 | G (10 to 20) | 1000 to 10000 | 
2 | COc1cc(Cn2nnc3c(-c4ccccc4)nc(N)nc32)ccc1NS(=O)(=O)O [4-[(5-amino-7-phenyl-3H-[1,2,3]triazolo[4,5-d]pyrimidin-3-yl)methyl]-2-methoxyphenylsulfamic acid] | 100 to 1000 | G (10 to 20) | 1000 to 10000 | 
3 | COc1cc(NS(=O)(=O)O)ccc1Cn1nnc2c(-c3ccccc3)nc(N)nc21 [4-[(5-amino-7-phenyl-3H-[1,2,3]triazolo[4,5-d]pyrimidin-3-yl)methyl]-3-methoxyphenylsulfamic acid] | 1000 to 10000 | F (5 to 10) | > 10000 | 
4 | COc1ccccc1-c1nc(N)nc2c1nnn2Cc1ccc(C)c(NS(=O)(=O)O)c1 [5-[(5-amino-7-(2-methoxyphenyl)-3H-[1,2,3]triazolo[4,5-d]pyrimidin-3-yl)methyl]-2-methylphenylsulfamic acid] | 1000 to 10000 | E (less than 5) | 1000 to 10000 | 
5 | Cc1ccc(Cn2nnc3c(-c4ccccc4)nc(N)nc32)cc1NS(=O)(=O)O [5-[(5-amino-7-phenyl-3H-[1,2,3,]triazolo[4,5-d]pyrimidin-3-yl)methyl]-2-methylphenylsulfamic acid] | ≤ 100 | G (10 to 20) | 100 to 1000 | 
6 | CCCn1c(=O)c2c(nc(/C=C/c3ccc(OC)c(OC)c3)n2C)n(CCC)c1=O [KF 17837, E-8-(3,4-dimethoxystyryl)-1,3-dipropyl-7-methylxanthine] |  |  |  | anticataleptic effects of a subthreshold dose of L-DOPA plus benserazide ([3]; in vivo): potentiated; catalepsy induced by haloperidol and reserpine ([3]; in vivo): reduced; cataleptic responses induced by intracerebroventricular CGS 21680 ([3]; oral administration): significantly ameliorated
7 | Cn1c(=O)c2[nH]cnc2n(C)c1=O [Theophylline, 1,3-dimethylxanthine] |  |  |  | serum theophylline levels ([4]; 150 mg/day slow release oral, after one week, Parkinsonian patients): 4.44 mg/L; mean objective disability scores ([4]; 15 Parkinsonian patients, up to 12 weeks, 150 mg/day): significant improvements; patients reporting moderate or marked subjective improvement ([4]; of 15 Parkinsonian patients, up to 12 weeks, 150 mg/day): 11

The next lines start with results.

Row | Ki [1] [nM] | A2A/A1 selectivity ratio (Ki A2A/Ki A1) [1] | Ki [2] [nM] | SMILES | also measured
8 | ≤ 100 | H (more than 20) | 100 to 1000 | Cc1cc(Cn2nnc3c(-c4ccccc4)nc(N)nc32)ccc1NS(=O)(=O)O [4-[(5-amino-7-phenyl-3H-[1,2,3]triazolo[4,5-d]pyrimidin-3-yl)methyl]-2-methylphenylsulfamic acid] | 
9 | ≤ 100 | H (more than 20) | 100 to 1000 | Cc1ccc(-c2nc(N)nc3c2nnn3Cc2ccc(C)c(NS(=O)(=O)O)c2)o1 [5-[(5-amino-7-(5-methylfuran-2-yl)-3H-[1,2,3]triazolo[4,5-d]pyrimidin-3-yl)methyl]-2-methylphenylsulfamic acid] | 
10 | ≤ 100 | H (more than 20) | 100 to 1000 | Cc1ccc(Cn2nnc3c(-c4ccco4)nc(N)nc32)cc1NS(=O)(=O)O [5-[(5-amino-7-(furan-2-yl)-3H-[1,2,3]triazolo[4,5-d]pyrimidin-3-yl)methyl]-2-methylphenylsulfamic acid] | 
11 | ≤ 100 | H (more than 20) | 1000 to 10000 | Cc1ccc(Cn2nnc3c(-c4cccs4)nc(N)nc32)cc1NS(=O)(=O)O [5-[(5-amino-7-(thiophen-2-yl)-3H-[1,2,3]triazolo[4,5-d]pyrimidin-3-yl)methyl]-2-methylphenylsulfamic acid] | 
